Test results taken from patent publication EP2578218A1, “Antiviral efficacy of disodium 2,6-dimethyl-1,4-dihydropyridine-3,5-bis(carbonyloxyacetate) and its derivatives” (Grindeks, A Joint Stock Company, priority 2011, dated 2013).

System: influenza virus (H3N2)
Assay: antiviral efficacy on MDCK cell line in vitro
Assay type: cell-based
Conditions: MDCK cells infected with influenza virus (H3N2); test compound present from 1 hour after viral infection until end of culture; over a wide concentration range (FIG.3-5)
Description: For influenza virus, MDCK cells that were permissive of viral replication were grown up to sufficient numbers in growth media with supplements. Once MDCK cells were confluent they were seeded into 96 well flat-bottomed plates (2x10^4 cells/well), incubated overnight and then infected with the influenza virus (H3N2) at the correct concentration and incubated in order to allow productive infection of the MDCK cells.
After the initial seeding of cells overnight (200 µl/well), the medium was removed and influenza viral infection performed in a smaller volume (25µl/well) for 1 hour. After the 1 hour infection, the viral inoculum was removed and replaced with medium (200p1/well) containing test compound. Thus, disodium 2,6-dimethyl-1,4-dihydropyridine-3,5-bis(carbonyloxyacetate) and its derivatives - disodium 2,4,6-trimethyl-1,4-dihydropyridine-3,5-bis-carbonyloxyacetate and disodium 4-ethyl-2,6-dimethyl-1,4-dihydropyridine-3,5-bis(carbonyloxyacetate) (compounds with general formula I), were presented from 1 hour after viral infection until the end of the culture period.
The antiviral efficacy of disodium 2,6-dimethyl-1,4-dihydropyridine-3,5-bis(carbonyloxyacetate) and its derivatives - disodium 2,4,6-trimethyl-1,4-dihydropyridine-3,5-bis(carbonyloxyacetate) and disodium 4-ethyl-2,6-dimethyl-1,4-dihydropyridine-3,5-bis(carbonyloxyacetate) (compounds with general formula I), were compared with already known medicaments, such as 1-methyl-2-phenylthiomethyl-3-carbethoxy-4-dimethylaminomethyl-5-oxybromoindole monohydrate hydrochloride and Oseltamivir, and results were represented in FIG.1., FIG.2., FIG.3., FIG.4. and FIG.5.

SMILES	antiviral efficacy
CC1=C(C(=O)OCC(=O)O)C(C)C(C(=O)OCC(=O)O)=C(C)N1 [disodium 2,4,6-trimethyl-1,4-dihydropyridine-3,5-bis-carbonyloxyacetate]	effective against influenza
CCC1C(C(=O)OCC(=O)O)=C(C)NC(C)=C1C(=O)OCC(=O)O [disodium 4-ethyl-2,6-dimethyl-1,4-dihydropyridine-3,5-bis(carbonyloxyacetate)]	effective against influenza
CC1=C(C(=O)OCC(=O)O)CC(C(=O)OCC(=O)O)=C(C)N1 [disodium 2,6-dimethyl-1,4-dihydropyridine-3,5-bis(carbonyloxyacetate)]	effective against influenza
